Laboratory results reported in patent publication US12129246B1, “Hydroquinazoline derivatives for the treatment of a disease or disorder” (Novartis AG, priority 2023, dated 2024).
Where two headings read alike, the source gives them in different places.

What was measured:
[1] = molecular target: monkey NPR1 (Macaca fascicularis, UniProt A0A7N9DBT9); experiment: Cellular cGMP production assay, monkey NPR1 expressing CHO-K1 cells (CisBio HTRF); format: cell-based; details: for Monkey NPR1 Amax (% of ANP): maximum cGMP production as percentage of the maximum cGMP produced with ANP
monkey NPR1, sequence (A0A7N9DBT9 entry or part of it): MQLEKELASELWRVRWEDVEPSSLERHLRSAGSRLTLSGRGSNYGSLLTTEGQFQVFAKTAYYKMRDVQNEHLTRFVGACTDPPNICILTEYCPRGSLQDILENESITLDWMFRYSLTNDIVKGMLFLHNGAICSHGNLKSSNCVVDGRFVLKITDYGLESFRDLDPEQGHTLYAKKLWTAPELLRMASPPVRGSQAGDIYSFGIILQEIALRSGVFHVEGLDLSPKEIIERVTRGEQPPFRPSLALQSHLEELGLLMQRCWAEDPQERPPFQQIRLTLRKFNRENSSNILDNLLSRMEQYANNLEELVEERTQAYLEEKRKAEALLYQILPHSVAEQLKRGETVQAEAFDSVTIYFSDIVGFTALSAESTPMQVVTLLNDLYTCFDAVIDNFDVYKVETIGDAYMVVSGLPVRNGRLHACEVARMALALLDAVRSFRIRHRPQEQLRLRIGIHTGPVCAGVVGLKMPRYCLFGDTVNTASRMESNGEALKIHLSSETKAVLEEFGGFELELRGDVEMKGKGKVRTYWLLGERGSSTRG
Summary of the method: (§1)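 Read-out was HTRF (excitation 317 nm, emission 665 nm), with cGMP quantified as Delta F against a calibrator standard curve. Beforehand, cells were exposed for 30 min at 37 °C to compound (30 μM top, twelve 3-fold steps) in IBMX-containing PBS/BSA buffer, then lysed.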

[2] = molecular target: T1, human NPR1 (Homo sapiens, UniProt P16066); experiment: Cellular cGMP production assay, human NPR1 expressing CHO-K1 cells (CisBio HTRF); format: cell-based; details: for AC50: cGMP production, 30 min at 37° C., 12-point dose-response from 30 μM; for Human NPR1 Amax (% of ANP): maximum cGMP production as percentage of the maximum cGMP produced with ANP
T1 construct: host or cells: CHO-K1
T1 sequence (P16066 33-1061): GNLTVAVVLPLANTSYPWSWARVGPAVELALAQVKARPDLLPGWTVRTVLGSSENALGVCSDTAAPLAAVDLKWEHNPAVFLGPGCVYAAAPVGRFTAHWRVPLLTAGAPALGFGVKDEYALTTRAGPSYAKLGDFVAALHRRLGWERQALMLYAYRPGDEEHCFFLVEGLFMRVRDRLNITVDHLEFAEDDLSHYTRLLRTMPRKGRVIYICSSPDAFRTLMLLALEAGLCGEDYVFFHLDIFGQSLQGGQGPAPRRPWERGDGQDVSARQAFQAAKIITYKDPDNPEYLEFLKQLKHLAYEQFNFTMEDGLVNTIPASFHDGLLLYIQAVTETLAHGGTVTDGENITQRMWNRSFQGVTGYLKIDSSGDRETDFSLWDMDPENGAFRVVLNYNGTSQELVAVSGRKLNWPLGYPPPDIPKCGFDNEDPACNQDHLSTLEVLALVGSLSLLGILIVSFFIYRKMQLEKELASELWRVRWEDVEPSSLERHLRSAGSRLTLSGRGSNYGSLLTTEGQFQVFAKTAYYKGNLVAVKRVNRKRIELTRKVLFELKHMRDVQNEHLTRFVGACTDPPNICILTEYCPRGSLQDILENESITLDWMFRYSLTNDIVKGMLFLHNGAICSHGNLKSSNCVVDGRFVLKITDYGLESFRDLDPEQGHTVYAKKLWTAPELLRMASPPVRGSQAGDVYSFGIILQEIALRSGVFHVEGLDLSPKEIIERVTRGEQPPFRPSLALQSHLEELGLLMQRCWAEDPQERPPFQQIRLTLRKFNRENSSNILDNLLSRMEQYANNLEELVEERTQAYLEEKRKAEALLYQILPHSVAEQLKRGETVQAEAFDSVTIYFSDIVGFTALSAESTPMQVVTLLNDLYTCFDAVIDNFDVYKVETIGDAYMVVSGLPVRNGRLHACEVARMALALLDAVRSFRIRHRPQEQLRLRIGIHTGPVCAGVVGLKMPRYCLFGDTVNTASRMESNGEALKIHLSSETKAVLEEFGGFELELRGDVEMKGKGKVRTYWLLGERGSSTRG
Summary of the method: as §1

[3] = cGMP production, monkey NPR1 CHO-K1 cells, 30 min at 37° C., 12-point dose-response from 30 μM, read-out: Monkey NPR1 AC50

SMILES | AC50 [1, 3] [nM] | Monkey NPR1 Amax (% of ANP) ([1]; monkey NPR1 CHO-K1 cells) | AC50 [2] [nM] | Human NPR1 Amax (% of ANP) [2] | AC50 [1] [nM]
CC[C@@H](Nc1nc2c(c(N[C@@H](CN3CCCC3)c3ccccc3)n1)CN(c1ccccc1)CC2)[C@H]1CC[C@H](C(=O)O)CC1 [Compound 131, (1R,4r)-4-((R)-1-((6-phenyl-4-(((R)-1-phenyl-2-(pyrrolidin-1-yl)ethyl)amino)-5,6,7,8-tetrahydropyrido[4,3-d]pyrimidin-2-yl)amino)propyl)cyclohexane-1-carboxylic acid] | 582 | 109.531 % of ANP | 693 | 101.666 % of ANP | 
CC[C@@H](Nc1nc2c(c(N[C@@H](CN3CCC[C@@H](C)C3)c3cnn(C)c3)n1)C[C@H](c1ccccc1)CC2)[C@H]1CC[C@H](C(=O)O)CC1 [Compound 84, (1R,4r)-4-((R)-1-(((R)-4-(((R)-1-(1-methyl-1H-pyrazol-4-yl)-2-((R)-3-methylpiperidin-1-yl)ethyl)amino)-6-phenyl-5,6,7,8-tetrahydroquinazolin-2-yl)amino)propyl)cyclohexane-1-carboxylic acid] | 191 | 102.883 % of ANP | 284 | 100.223 % of ANP | 
CC[C@H]([C@H]1CC[C@H](C(=O)O)CC1)N(C)c1nc2c(c(N[C@@H](CN3CCCC4(CCOC4)C3)c3cnn(CC)c3)n1)C[C@H](c1ccccc1)CC2 (stereo partly drawn) [Compound 162, (1R,4r)-4-((1R)-1-(((6R)-4-(((1R)-1-(1-ethyl-1H-pyrazol-4-yl)-2-(2-oxa-7-azaspiro[4.5]decan-7-yl)ethyl)amino)-6-phenyl-5,6,7,8-tetrahydroquinazolin-2-yl)(methyl)amino)propyl)cyclohexane-1-carboxylic acid] | 1310 | 89.971 % of ANP | 1700 | 83.721 % of ANP | 
CC[C@@H](Nc1nc2c(c(N[C@@H](CN3CCCCC3)c3scnc3C)n1)C[C@H](c1ccccc1)CC2)[C@H]1CC[C@H](C(=O)O)CC1 [Compound 114, (1R,4r)-4-((R)-1-(((R)-4-(((S)-1-(4-methylthiazol-5-yl)-2-(piperidin-1-yl)ethyl)amino)-6-phenyl-5,6,7,8-tetrahydroquinazolin-2-yl)amino)propyl)cyclohexane-1-carboxylic acid] | 296 | 113.348 % of ANP | 449 | 108.428 % of ANP | 
CC[C@@H](Nc1nc2c(c(N[C@@H](CN3C4CCCC3CC(O)C4)c3cnn(CC)c3)n1)C[C@H](c1cccc(F)c1)CC2)[C@H]1CC[C@H](C(=O)O)CC1 (stereo partly drawn) [Compound 117, (1R,4r)-4-((1R)-1-(((6R)-4-(((1R)-1-(1-ethyl-1H-pyrazol-4-yl)-2-((1R,5S)-3-hydroxy-9-azabicyclo[3.3.1]nonan-9-yl)ethyl)amino)-6-(3-fluorophenyl)-5,6,7,8-tetrahydroquinazolin-2-yl)amino)propyl)cyclohexane-1-carboxylic acid] |  | 109.499 % of ANP | 524 | 100.635 % of ANP | 500
